Legend:
[1] = system: T1, Enterococcus faecium ATCC 12202; experiment: microbe, parasite or virus in culture; parameters: CLSI broth microdilution MIC in 96-well plates, cation-adjusted Mueller-Hinton broth; details: ATCC12202
T1 construct: ATCC 12202
Experimental: (§1) The susceptibility of bacterial strains was investigated in collaboration with the Warwick Antimicrobial Screening Facility in a 96-well plate experiment, according to the Clinical & Laboratory Standards Institute (CLSI) guidelines (M7-A9 2012). Scleric acid was diluted to a concentration of 7.5 mg mL^–1 in 25% DMSO in distilled water. […] This was then further doubling diluted throughout the MIC. Meropenem and cefoxitin were used as positive controls during MIC testing. The antimicrobial activity of scleric acid was assessed. Inhibitory activity against representatives of the ESKAPE panel of pathogens: Enterococcus faecium, Staphylococcus aureus, Klebsiella pneumoniae, Acinetobacter baumannii, Pseudomonas aeruginosa, and Enterobacter cloacae was first screened but all strains appeared to be resistant to scleric acid, giving no observable MIC (ESI Table S6 ^†).

[2] = system: T2, Enterobacter cloacae NCTC 13405; experiment: microbe, parasite or virus in culture; parameters: CLSI broth microdilution MIC in 96-well plates, cation-adjusted Mueller-Hinton broth; details: NCTC13405
T2 construct: NCTC 13405
Experimental: as §1

[3] = system: T3, Acinetobacter baumanii ATCC 19606; experiment: microbe, parasite or virus in culture; parameters: CLSI broth microdilution MIC in 96-well plates, cation-adjusted Mueller-Hinton broth; details: Acinetobacter baumannii, ATCC19606
T3 construct: ATCC 19606
Experimental: as §1

[4] = system: T4, Staphylococcus aureus USA300; experiment: microbe, parasite or virus in culture; parameters: CLSI broth microdilution MIC in 96-well plates, cation-adjusted Mueller-Hinton broth
T4 construct: USA300 (ATCC BAA-1717)
Experimental: as §1

[5] = system: T5, Klebsiella pneumoniae ATCC 700603; experiment: microbe, parasite or virus in culture; parameters: CLSI broth microdilution MIC in 96-well plates, cation-adjusted Mueller-Hinton broth; details: ATCC700603
T5 construct: ATCC 700603
Experimental: as §1

[6] = system: T6, Pseudomonas aeruginosa ATCC 27853; experiment: microbe, parasite or virus in culture; parameters: CLSI broth microdilution MIC in 96-well plates, cation-adjusted Mueller-Hinton broth; details: ATCC27853
T6 construct: ATCC 27853
Experimental: as §1

[7] = biological target: T7, nicotinamide N-methyltransferase (NNMT) (Homo sapiens, UniProt P40261); experiment: NNMT concentration-response assay (MNAN and SAH product readouts), Eli Lilly OIDD; enzyme source not stated in main text; type: biochemical
T7 sequence (P40261 1-264): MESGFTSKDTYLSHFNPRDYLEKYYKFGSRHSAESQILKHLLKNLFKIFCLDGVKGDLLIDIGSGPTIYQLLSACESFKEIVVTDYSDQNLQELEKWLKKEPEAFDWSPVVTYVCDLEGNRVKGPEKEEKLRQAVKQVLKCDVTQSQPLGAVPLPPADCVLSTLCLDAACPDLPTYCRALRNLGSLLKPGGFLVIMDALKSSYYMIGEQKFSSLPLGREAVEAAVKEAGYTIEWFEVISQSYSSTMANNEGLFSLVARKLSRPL

O=C(OCC(=O)N1CCC[C@H]1C(=O)O)c1ccccc1 [compound 2, (2-(benzoyloxy)acetyl)-L-proline]
MIC [1]: > 1020 µg/mL
MIC [2]: > 1020 µg/mL
MIC [3]: > 1020 µg/mL
MIC [4]: > 1020 µg/mL
MIC [5]: > 1020 µg/mL
MIC [6]: > 1020 µg/mL
IC50 [7]: 178 µM
